According to US20130096141A1, “BICYCLIC HETEROCYCLE DERIVATIVES AND METHODS OF USE THEREOF” (priority 2010, published 2013):

target: T1, GPR119 receptor (Homo sapiens, UniProt Q8TDV5); experiment: cAMP assay in cells transfected with the GPR119 receptor (human); type: cell-based; details: increase in intracellular cAMP, read-out: h-cAMP EC50
T1 construct: expressed in transfected cells
T1 sequence (Q8TDV5 1-335): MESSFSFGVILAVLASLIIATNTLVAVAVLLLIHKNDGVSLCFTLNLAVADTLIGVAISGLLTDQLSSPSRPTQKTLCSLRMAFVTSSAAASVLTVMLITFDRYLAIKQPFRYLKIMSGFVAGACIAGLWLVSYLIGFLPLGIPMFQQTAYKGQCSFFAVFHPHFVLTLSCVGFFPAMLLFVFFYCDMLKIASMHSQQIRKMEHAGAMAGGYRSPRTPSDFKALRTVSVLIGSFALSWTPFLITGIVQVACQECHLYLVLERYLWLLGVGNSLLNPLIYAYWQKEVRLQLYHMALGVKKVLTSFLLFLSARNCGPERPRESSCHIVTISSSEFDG
Description: The activity of these compounds may be assayed in cells transfected the GPR119 receptor (human, mouse, rat or monkey). Incubation with the above compounds results in an increase in intracellular cAMP, from which an EC50 value may be calculated. Ki values for compounds at this receptor can be determined by employing a radio-labeled agonist. In vivo activity can be determined by conducting an oral glucose-tolerance test in an appropriate species, such as mouse.

Compared with `CC(C)(C)OC(=O)N1CC2COCC(C1)C2Oc1ncnc2c(-c3ccc(C#N)cc3F)csc12` (stereo not shown) [Example 1], `CC(C)(C)OC(=O)N1CC2COCC(C1)C2Oc1ncnc2c(-c3ccc(C#N)cc3Cl)csc12` (stereo not shown) [Example 9] is 5.9-fold higher in EC50: 8 nM for the first, 47 nM for the second.

First: CC(C)(C)OC(=O)N1CC2COCC(C1)C2Oc1ncnc2c(-c3ccc(S(C)(=O)=O)cc3F)csc12 (stereo not shown) [Example 2]
Second: CC(C)(C)OC(=O)N1CC2COCC(C1)C2Oc1ncnc2c(-c3ccc(F)cc3F)csc12 (stereo not shown) [Example 5]
The EC50 of the first is 3.4-fold higher: 62 nM for the first, 18 nM for the second.

Compared with `CC1(OC(=O)N2CC3COCC(C2)C3Oc2ncnc3c(-c4ccc(C#N)cc4F)csc23)CC1` (stereo not shown) [Example 3], `CC1(OC(=O)N2CC3COCC(C2)C3Oc2ncnc3c(-c4ccc(C#N)cc4Cl)csc23)CC1` (stereo not shown) [Example 10] is 2.7-fold higher in EC50: 9 nM for the first, 24 nM for the second.

Compared with `CS(=O)(=O)c1ccc(-c2csc3c(OC4C5COCC4CN(c4ncc(Cl)cn4)C5)ncnc23)c(F)c1` (stereo not shown) [Example 4], `CS(=O)(=O)c1ccc(-c2csc3c(OC4C5COCC4CN(c4ncc(F)cn4)C5)ncnc23)c(F)c1` (stereo not shown) [Example 7] is 2-fold higher in EC50: 23 nM for the first, 47 nM for the second.

First: CC1(OC(=O)N2CC3COCC(C2)C3Oc2ncnc3c(-c4ccc(F)cc4F)csc23)CC1 (stereo not shown) [Example 6]
Second: CC1(OC(=O)N2CC3COCC(C2)C3Oc2ncnc3c(-c4ccc(Cl)cc4F)csc23)CC1 (stereo not shown) [Example 22]
The EC50 of the first is 8-fold higher: 16 nM for the first, 2 nM for the second. The second is the more potent here.

Going from `CCCc1cnc(N2CC3COCC(C2)C3Oc2ncnc3c(-c4ccc(S(C)(=O)=O)cc4F)csc23)nc1` (stereo not shown) [Example 8] to `Cn1cc(-c2ccc(S(C)(=O)=O)cc2F)c2ncnc(OC3C4COCC3CN(c3ncc(Cl)cn3)C4)c21` (stereo not shown) [Example 21], the EC50 falls from 150 nM to 5.3 nM (28-fold).

Going from `N#Cc1ccc(-c2csc3c(OC4C5COCC4CN(c4ncc(Cl)cn4)C5)ncnc23)c(Cl)c1` (stereo not shown) [Example 11] to `COc1ccc(-c2csc3c(OC4C5COCC4CN(c4ncc(Cl)cn4)C5)ncnc23)c(F)c1` (stereo not shown) [Example 28], the EC50 falls from 18 nM to 2.1 nM (8.6-fold).

Compared with `CC1(OC(=O)N2CC3COCC(C2)C3Oc2ncnc3c(-c4ccc(C(=O)C5CC5)cc4Cl)csc23)CC1` (stereo not shown) [Example 12], `CC1(OC(=O)N2CC3COCC(C2)C3Oc2ncnc3c(-c4ccc(F)cc4Cl)csc23)CC1` (stereo not shown) [Example 45] is 860-fold lower in EC50: 86 nM for the first, 0.1 nM for the second. The second is the more potent here.

Going from `CC1(OC(=O)N2CC3COCC(C2)C3Oc2ncnc3c(-c4ccc(C#N)cc4F)c[nH]c23)CC1` (stereo not shown) [Example 14] to `Cn1cc(-c2ccc(C#N)cc2F)c2ncnc(OC3C4COCC3CN(C(=O)OC3(C)CC3)C4)c21` (stereo not shown) [Example 17], the EC50 falls from 298 nM to 13 nM (23-fold). The second is the more potent here.

Going from `CS(=O)(=O)c1ccc(-c2c[nH]c3c(OC4C5COCC4CN(c4ncc(Cl)cn4)C5)ncnc23)c(F)c1` (stereo not shown) [Example 16] to `CS(=O)(=O)c1ccc(-c2csc3c(OC4C5COCC4CN(CC(F)(F)C(F)(F)F)C5)ncnc23)c(F)c1` (stereo not shown) [Example 33], the EC50 falls from 247 nM to 1 nM (250-fold). The second is the more potent here.

Going from `COc1ccc(-c2csc3c(OC4C5COCC4CN(C(=O)OC4(C)CC4)C5)ncnc23)c(F)c1` (stereo not shown) [Example 23] to `COc1ccc(-c2csc3c(OC4C5COCC4CN(C(=O)OC4(C)CC4)C5)ncnc23)c(Cl)c1` (stereo not shown) [Example 38], the EC50 falls from 1.1 nM to 0.44 nM (2.5-fold).

First: CC1(OC(=O)N2CC3COCC(C2)C3Oc2ncnc3c(-c4ccc(F)cc4C#N)csc23)CC1 (stereo not shown) [Example 24]
Second: Cc1ccc(-c2csc3c(OC4C5COCC4CN(C(=O)OC4(C)CC4)C5)ncnc23)c(F)c1 (stereo not shown) [Example 39]
The EC50 of the first is 3.3-fold higher: 1.2 nM for the first, 0.36 nM for the second. The second is the more potent here.

First: COC(=O)c1ccc(-c2csc3c(OC4C5COCC4CN(C(=O)OC4(C)CC4)C5)ncnc23)c(F)c1 (stereo not shown) [Example 25]
Second: CC1(OC(=O)N2CC3COCC(C2)C3Oc2ncnc3c(-c4ccc(O)cc4F)csc23)CC1 (stereo not shown) [Example 44]
The EC50 of the first is 2.2-fold lower: 0.46 nM for the first, 1 nM for the second. The first is the more potent here.

Compared with `COc1ccc(-c2csc3c(OC4C5COCC4CN(C(=O)OC(C)C)C5)ncnc23)c(F)c1` (stereo not shown) [Example 27], `CC(C)(O)COc1ccc(-c2csc3c(OC4C5COCC4CN(C(=O)OC4(C)CC4)C5)ncnc23)c(F)c1` (stereo not shown) [Example 52] is 1.5-fold lower in EC50: 0.76 nM for the first, 0.5 nM for the second.

First: CC1(OC(=O)N2CC3COCC(C2)C3Oc2ncnc3c(-c4ccc(CO)cc4F)csc23)CC1 (stereo not shown) [Example 29]
Second: COCc1ccc(-c2csc3c(OC4C5COCC4CN(C(=O)OC4(C)CC4)C5)ncnc23)c(F)c1 (stereo not shown) [Example 30]
The EC50 of the first is 1.5-fold lower: 0.48 nM for the first, 0.74 nM for the second. The first is the more potent here.

`Cn1cc(-c2ccc(F)cc2F)c2ncnc(OC3C4COCC3CN(C(=O)OC3(C)CC3)C4)c21` (stereo not shown) [Example 31] and `COc1ccc(-c2cn(C)c3c(OC4C5COCC4CN(C(=O)OC4(C)CC4)C5)ncnc23)c(F)c1` (stereo not shown) [Example 32] are within 1.5-fold of each other in EC50: 8.4 nM for the first, 5.7 nM for the second.

First: Fc1ccc(-c2csc3c(OC4C5COCC4CN(CC(F)(F)C(F)(F)F)C5)ncnc23)c(F)c1 (stereo not shown) [Example 34]
Second: COc1ccc(-c2csc3c(OC4C5COCC4CN(CC(F)(F)C(F)(F)F)C5)ncnc23)c(F)c1 (stereo not shown) [Example 35]
The EC50 of the first is 1.6-fold higher: 72 nM for the first, 45 nM for the second.

Going from `N#Cc1ccc(-c2csc3c(OC4C5COCC4CN(CC(F)(F)C(F)(F)F)C5)ncnc23)c(Cl)c1` (stereo not shown) [Example 36] to `N#Cc1ccc(-c2csc3c(OC4C5COCC4CN(CC(F)(F)C(F)(F)F)C5)ncnc23)c(F)c1` (stereo not shown) [Example 37], the EC50 falls from 35 nM to 1.6 nM (22-fold).

Going from `CC1(OC(=O)N2CC3COCC(C2)C3Oc2ncnc3c(-c4ncc(F)cc4F)csc23)CC1` (stereo not shown) [Example 40] to `Cc1c(F)ccc(-c2csc3c(OC4C5COCC4CN(C(=O)OC4(C)CC4)C5)ncnc23)c1F` (stereo not shown) [Example 49], the EC50 rises from 0.51 nM to 1.7 nM (3.3-fold).

First: CC1(OC(=O)N2CC3COCC(C2)C3Oc2ncnc3c(-c4ccc(S(C)(=O)=O)cc4F)csc23)CC1 (stereo not shown) [Example 41]
Second: Cn1cc(-c2ccc(S(C)(=O)=O)cc2F)c2ncnc(OC3C4COCC3CN(C(=O)OC3(C)CC3)C4)c21 (stereo not shown) [Example 42]
The EC50 of the first is 2.1-fold lower: 0.47 nM for the first, 1 nM for the second. The first is the more potent here.

Compared with `CCS(=O)(=O)c1ccc(-c2csc3c(OC4C5COCC4CN(C(=O)OC4(C)CC4)C5)ncnc23)cc1` (stereo not shown) [Example 43], `CC1(OC(=O)N2CC3COCC(C2)C3Oc2ncnc3c(-c4ccc(S(C)(=O)=O)cc4)csc23)CC1` (stereo not shown) [Example 50] is 5.8-fold higher in EC50: 0.38 nM for the first, 2.2 nM for the second.

Going from `COC(=O)COc1ccc(-c2csc3c(OC4C5COCC4CN(C(=O)OC4(C)CC4)C5)ncnc23)c(F)c1` (stereo not shown) [Example 46] to `CC1(OC(=O)N2CC3COCC(C2)C3Oc2ncnc3c(-c4ccc(OCCO)cc4F)csc23)CC1` (stereo not shown) [Example 51], the EC50 falls from 2.5 nM to 0.65 nM (3.8-fold).

`CC1(OC(=O)N2CC3COCC(C2)C3Oc2ncnc3c(-c4ccc(C#N)cc4)csc23)CC1` (stereo not shown) [Example 47] and `CC1(OC(=O)N2CC3COCC(C2)C3Oc2ncnc3c(-c4ccc(F)c(CO)c4F)csc23)CC1` (stereo not shown) [Example 48] are within 1.5-fold of each other in EC50: 1 nM for the first, 1.4 nM for the second.
